The source of these data is article PMC11428031, “Discovery of selective LATS inhibitors via scaffold hopping: enhancing drug-likeness and kinase selectivity for potential applications in regenerative medicine” (RSC Medicinal Chemistry, 2024).

By solubility is commonly meant the concentration that dissolves in the medium under given conditions. For orientation: amount remaining means the share of the starting amount still present when the sample was taken. The AUC(0-inf) is total exposure, with the tail of the curve extrapolated. What is called AUC(0-t) is the area under the concentration-time curve up to a stated or last time point. A word on the Cmax: it is the maximum level reached in the sampled fluid or tissue. The MRT inf is a mean duration of stay, worked out from the concentration-time curve. A word on the MRT last: it is a mean duration of stay, worked out from the concentration-time curve. For orientation: Tmax means the time at which the peak concentration occurs. Usually half-life stands for how long it takes for the measured level to halve. For orientation: Vd means the apparent volume that relates the amount in the body to the concentration in plasma or blood. In general, clearance refers to the rate of elimination divided by the concentration.

Data set [1] in a line: Liver microsomal phase I stability, human. The settings on record: for HLM phase I stability (% remaining after 30 min): human liver microsomes 0.5 mg/mL, 1 μM compound, NADPH, 37 °C, mean ± SD, n=3; for Stability in human liver microsomes relative to 1, Truli: experimental values of Table 4.
Data set [2] can be described thus: physchem. The settings on record: D2O (deuterium oxide).
A short description of data set [3]: in vitro. As to conditions: human, liver microsomes. A general note: Microsomes from liver hold many membrane-bound enzymes, among them those of drug oxidation.
Data set [4] can be described thus: in vitro. As to conditions: mouse, liver microsomes.
For data set [5], the system named is 321 protein kinases. Also noted: method as in PMID 35231442. As to conditions: out of 321 tested protein kinases; cited from earlier work.
A short description of data set [6]: In vivo pharmacokinetics in male mice. As to conditions: for Ft: IP; for half-life: T1/2, male mice; for clearance: CL.
Description: All animal procedures were performed in accordance with the Guidelines for Care and Use of Laboratory Animals of Korea Research Institute of Chemical Technology and approved by the Animal Ethics Committee of Korea Research Institute of Chemical Technology.
The nature of data set [7]: Liver microsomal phase I stability, mouse. As to conditions: mouse liver microsomes 0.5 mg/mL, 1 μM compound, NADPH, 37 °C, mean ± SD, n=3.
For data set [8], the target named is T1, YSK4 (Homo sapiens, UniProt Q56UN5).
T1 sequence (Q56UN5 1-1328): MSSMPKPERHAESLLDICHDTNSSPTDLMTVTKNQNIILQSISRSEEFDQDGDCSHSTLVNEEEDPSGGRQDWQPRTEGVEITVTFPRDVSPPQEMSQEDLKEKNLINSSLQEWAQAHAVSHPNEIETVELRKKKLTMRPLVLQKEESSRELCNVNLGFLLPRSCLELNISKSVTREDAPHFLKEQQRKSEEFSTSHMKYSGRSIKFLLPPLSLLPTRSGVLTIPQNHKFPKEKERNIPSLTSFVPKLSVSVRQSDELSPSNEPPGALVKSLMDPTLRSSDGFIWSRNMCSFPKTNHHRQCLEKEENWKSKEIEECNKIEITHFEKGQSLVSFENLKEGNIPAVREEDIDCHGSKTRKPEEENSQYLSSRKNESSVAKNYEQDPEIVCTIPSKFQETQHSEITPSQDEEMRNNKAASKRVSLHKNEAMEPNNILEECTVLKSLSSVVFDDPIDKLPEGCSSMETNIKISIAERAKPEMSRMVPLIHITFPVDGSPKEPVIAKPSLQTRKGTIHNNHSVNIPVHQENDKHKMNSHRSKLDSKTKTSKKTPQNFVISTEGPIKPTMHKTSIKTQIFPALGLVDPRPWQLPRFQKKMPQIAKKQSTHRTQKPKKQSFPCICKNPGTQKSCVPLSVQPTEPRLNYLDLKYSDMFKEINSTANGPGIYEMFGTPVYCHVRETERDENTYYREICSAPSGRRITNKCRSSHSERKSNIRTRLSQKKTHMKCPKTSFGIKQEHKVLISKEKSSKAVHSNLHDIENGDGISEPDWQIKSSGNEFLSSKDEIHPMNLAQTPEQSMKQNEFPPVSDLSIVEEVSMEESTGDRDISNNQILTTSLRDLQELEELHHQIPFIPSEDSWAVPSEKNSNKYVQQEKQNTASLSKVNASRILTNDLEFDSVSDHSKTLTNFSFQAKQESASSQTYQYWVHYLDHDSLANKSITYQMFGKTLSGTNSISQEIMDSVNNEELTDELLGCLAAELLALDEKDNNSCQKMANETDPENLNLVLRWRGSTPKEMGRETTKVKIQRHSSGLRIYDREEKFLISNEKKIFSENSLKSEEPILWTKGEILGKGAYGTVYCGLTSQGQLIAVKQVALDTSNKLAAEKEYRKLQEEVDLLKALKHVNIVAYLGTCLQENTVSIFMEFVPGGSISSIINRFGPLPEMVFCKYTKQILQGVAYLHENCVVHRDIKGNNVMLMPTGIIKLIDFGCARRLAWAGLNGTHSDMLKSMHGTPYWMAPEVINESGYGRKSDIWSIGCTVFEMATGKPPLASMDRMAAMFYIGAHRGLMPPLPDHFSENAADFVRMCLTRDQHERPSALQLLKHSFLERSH
The experiment in a line: KINOMEscan scanMAX binding, YSK4. As to conditions: 100 nM compound; lower = stronger interaction.

Data set [9] addresses T2, DMPK (Homo sapiens, UniProt Q09013).
T2 sequence (Q09013 1-629): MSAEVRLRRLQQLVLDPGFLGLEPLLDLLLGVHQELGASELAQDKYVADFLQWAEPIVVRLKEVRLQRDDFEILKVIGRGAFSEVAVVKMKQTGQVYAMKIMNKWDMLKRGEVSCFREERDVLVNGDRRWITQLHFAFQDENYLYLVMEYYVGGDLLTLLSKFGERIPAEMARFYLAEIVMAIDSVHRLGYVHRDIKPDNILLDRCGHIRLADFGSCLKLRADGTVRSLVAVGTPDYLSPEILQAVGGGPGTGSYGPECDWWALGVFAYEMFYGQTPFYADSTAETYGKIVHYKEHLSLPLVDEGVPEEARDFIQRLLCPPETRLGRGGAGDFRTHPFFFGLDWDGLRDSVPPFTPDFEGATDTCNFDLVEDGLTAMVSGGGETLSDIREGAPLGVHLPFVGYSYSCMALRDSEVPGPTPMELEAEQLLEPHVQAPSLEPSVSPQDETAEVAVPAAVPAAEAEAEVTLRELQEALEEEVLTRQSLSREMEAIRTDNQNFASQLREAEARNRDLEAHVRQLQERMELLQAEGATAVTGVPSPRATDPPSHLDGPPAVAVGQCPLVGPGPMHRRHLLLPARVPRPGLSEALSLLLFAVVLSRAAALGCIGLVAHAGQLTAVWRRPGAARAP
The experiment in a line: KINOMEscan scanMAX binding, DMPK. The settings on record: 100 nM compound; lower = stronger interaction.

The test system of data set [10] is 468 kinases. The experiment in a line: KINOMEscan scanMAX kinase profiling, selectivity over the panel. Type of data set: binding. As to conditions: 100 nM, of 403 non-mutant kinases.
[11] abbreviates: male, mouse, plasma, ip, 10 mg/kg.
Where [12] appears, read: male, mouse, plasma, iv, 5 mg/kg.
Setting [13] is: male, mouse, plasma, iv, 5 mg/kg, male mice.
Setting [14] is: male, mouse, plasma, po, 20 mg/kg.

Converted amounts (≈) assume the structure as drawn.

In the case of `O=C(/N=c1\sccn1Cc1ccccc1)c1c[nH]c2ncccc12` [1 (Truli), (Z)-N-(3-benzylthiazol-2(3H)-ylidene)-1H-pyrrolo[2,3-b]pyridine-3-carboxamide, reference compound], the “HLM phase I stability (% remaining after 30 min)” value in data set [1] is given as 2.7 ± 0.5%. This molecule also gave a solubility at 24 h in [2] of 140 ± 26 µg/mL (≈ 419 µM). In addition, the amount remaining at 0.5 h, 1 μM in data set [3] is 2.68 ± 0.46%; in data set [4] it was 0.18 ± 0.03%.

On to `CC/C(=N\NC(=O)NCc1cccc(O)c1)c1ccc(O)c(C)c1O` [3 (GA-017)], for which, in data set [5], the “Number of protein kinases against which high potency was exhibited” value was 16.

As to `O=C(/N=c1\sccn1Cc1ccccc1)c1c[nH]c2ncncc12` [Compound 5k, (Z)-N-(3-Benzylthiazol-2(3H)-ylidene)-7H-pyrrolo[2,3-d]pyrimidine-5-carboxamide], in data set [1], the “Stability in human liver microsomes relative to 1, Truli” value was “more than ten times higher stability” and the “HLM phase I stability (% remaining after 30 min)” value is listed as 43 ± 1.1%. In data set [2], this molecule displayed a solubility at 24 h of 680 ± 89 µg/mL (≈ 2030 µM). The Ft in data set [6] (male mice, 10 mg/kg) was found to be 131.71%. In data set [6] (setting [11]), the AUC(0-inf) was 11500 ± 3250 ng·h/mL, the exposure AUC(0-t) was 11400 ± 3280 ng·h/mL, the concentration peaked (Cmax) at 9510 ± 2030 ng/mL and the MRT inf amounted to 1.27 ± 0.15 h. In addition, in [6] (setting [11]), the MRT last came out at 1.14 ± 0.15 h, the Tmax stood at 0.5 h and the half-life was 5.24 ± 2.45 h. In data set [6] (setting [12]), this molecule displayed an AUC(0-inf) of 4340 ± 2160 ng·h/mL, an AUC(0-t) of 4340 ± 2170 ng·h/mL, a mean residence time (MRT inf) of 1.49 ± 1.72 h and an MRT last of 1.43 ± 1.65 h. In data set [6] (setting [12]), this molecule gave a Vd of 3 ± 4.42 L/kg and a half-life of 2.86 ± 1.88 h. This molecule also gave a clearance in [6] (setting [13]) of 23.5 mL/min/kg. In addition, in data set [6] (setting [14]), the AUC(0-inf) was 25800 ± 7970 ng·h/mL, the AUC(0-t) amounted to 25700 ± 8010 ng·h/mL, the Cmax was determined as 13300 ± 2820 ng/mL and the mean residence time (MRT inf) is 1.81 ± 0.94 h. Moreover, in data set [6] (setting [14]), the MRT last was found to be 1.74 ± 0.99 h, the Tmax amounted to 0.42 ± 0.14 h, the bioavailability is 148% and the half-life was 4.25 ± 3.57 h. The “MLM phase I stability (% remaining after 30 min)” value in data set [7] is 14 ± 0.6%. The molecule further gave an amount remaining at 0.5 h, 1 μM in data set [3] of 43.1 ± 1.1%. The amount remaining at 0.5 h, 1 μM in data set [4] came out at 13.8 ± 0.55%.

As for `O=C(/N=c1\sccn1Cc1ccccc1)c1n[nH]c2ncccc12` [Compound 5l, (Z)-N-(3-Benzylthiazol-2(3H)-ylidene)-1H-pyrazolo[3,4-b]pyridine-3-carboxamide], in [1], the “Stability in human liver microsomes relative to 1, Truli” value is recorded as “more than ten times higher stability” and the “HLM phase I stability (% remaining after 30 min)” value is given as 35 ± 1.3%. This molecule had a solubility at 24 h in data set [2] of 290 ± 15 µg/mL (≈ 865 µM). For the same molecule, the “%Ctrl @ 100 nM, YSK4” value in [8] was 7.1 %Ctrl. Also, the “%Ctrl @ 100 nM, DMPK” value in data set [9] was found to be 6.5 %Ctrl. The molecule further registered a Ft in data set [6] (male mice, 10 mg/kg) of 74.36%. For the same molecule, the “Ft (bioavailability, F)” value in [6] (male mice, PO, 20 mg/kg) stood at 43.89%. In data set [6] (setting [11]), the AUC(0-inf) turned out to be 4390 ± 710 ng·h/mL, the AUC(0-t) came to 4370 ± 720 ng·h/mL, the Cmax was found to be 7300 ± 1880 ng/mL and the MRT inf was 1.14 ± 0.21 h. In [6] (setting [11]), the MRT last is 0.97 ± 0.12 h, the Tmax was 0.08 h and the half-life was 5.59 ± 0.88 h. Moreover, in data set [6] (setting [12]), the AUC(0-inf) is 2960 ± 150 ng·h/mL, the AUC(0-t) came to 2940 ± 180 ng·h/mL, the MRT inf turned out to be 1.04 ± 0.71 h and the MRT last was 0.71 ± 0.25 h. In data set [6] (setting [12]), this molecule had a Vd of 1.8 ± 1.32 L/kg and a half-life of 6.56 ± 3.32 h. The molecule also showed a clearance in data set [6] (setting [13]) of 28.2 mL/min/kg. For the same molecule, in data set [6] (setting [14]), the total exposure AUC(0-inf) was determined as 5160 ± 590 ng·h/mL, the AUC(0-t) stood at 5150 ± 590 ng·h/mL, the concentration peaked (Cmax) at 5740 ± 920 ng/mL and the mean residence time MRT inf was determined as 1.56 ± 0.1 h. Also, in [6] (setting [14]), the MRT last was 1.5 ± 0.1 h, the Tmax came to 0.25 h and the half-life was 3.46 ± 0.33 h. In [10] (%Ctrl <1), the “Number hits, S(1)” value stood at 0. In addition, the “Number hits, S(10)” value in [10] (%Ctrl <10) is 2. In addition, the “Number hits, S(35)” value in data set [10] (%Ctrl <35) came to 3. In addition, the share remaining at 0.5 h, 1 μM in data set [3] was 34.9 ± 1.31%. This molecule showed a fraction remaining at 0.5 h, 1 μM in data set [4] of 0.69 ± 0.17%.
